From publication PMC8514817, “De Novo Design of Antimicrobial Peptides With a Special Charge Pattern and Their Application in Combating Plant Pathogens” (Frontiers in Plant Science, 2021)
Read-outs that look alike come from different tables or passages of the source.

What was measured:
[1] = system: Pectobacterium carotovorum subsp. carotovorum (Pcc); experiment: Plant disease response, Pcc infection of Arabidopsis Col0 leaves; assay type: in vivo, Arabidopsis thaliana; details: crude peptide 16 μg/ml mixed with Pcc, wounded leaves of Arabidopsis Col0, 16–28 h post-inoculation, vs water
[2] = system: Ralstonia solanacearum (Rs); assay type: cell-based; details: at the highest peptide concentration (32μg/ml) tested; data not shown; before the tests in minimal media
Rs Pss190 = details: Table 5, minimal medium, crude peptides, up to 32 μg/ml; for MIC: 96 h; for MBC/MFC: spotted on rich agar 48 h
[3] = system: Pectobacterium carotovorum subsp. carotovorum (Pcc); experiment: Plant disease response, Pcc infection of tomato L390 leaves; assay type: in vivo, Solanum lycopersicum; details: for size of disease lesions caused by Pcc, tomato: crude peptide 16 μg/ml mixed with Pcc, detached wounded tomato L390 leaves, 16–28 h post-inoculation, vs water
Pst DC3000 = details: Table 4, rich medium, up to 32 μg/ml; for MIC: 48 h, no visible growth; for MBC: spotted on rich agar 48 h, no colony
Pss B728a = details: Table 4, rich medium, up to 32 μg/ml; for MIC: 48 h, no visible growth; for MBC: spotted on rich agar 48 h, no colony
Cgl FST02 = details: for MIC / MBC/MFC: Table 5, minimal (CD) medium, crude peptides, up to 32 μg/ml; for MIC: spores, 96 h; for MBC/MFC: spotted on PD plate 24~72 h; for antimicrobial activity: at the highest peptide concentration (32μg/ml) tested, data not shown, before the tests in minimal media
Ech = details: up to 32 μg/ml
Rs Pss4 = details: Table 5, minimal medium, crude peptides, up to 32 μg/ml; for MIC: 96 h; for MBC/MFC: spotted on rich agar 48 h
Rs = assay type: cell-based, Ralstonia solanacearum; details: crude peptide, 5 μl of 64 μg/ml in 20 μl, bacteria OD600=0.4 in water, 2 h, confocal microscopy
Xev Xvt28 [4] = details: 48 h
Botrytis cinerea (Bc) [5] = experiment: Plant disease response, Bc infection of Arabidopsis Col0 leaves; assay type: in vivo, Arabidopsis thaliana; details: for development of the lesion caused by Bc, Arabidopsis: crude peptide 16 μg/ml mixed with Bc spores (10^5 spores/ml), Arabidopsis Col0 leaves, 47–70 h post-inoculation, vs water
Pcc = details: up to 32 μg/ml
Botrytis cinerea (Bc) [6] = experiment: Plant disease response, Bc infection of tomato L390 leaves; assay type: in vivo, Solanum lycopersicum; details: crude peptide 16 μg/ml mixed with Bc spores (10^4 spores/ml), 47–70 h post-inoculation, vs water
Eco = assay type: cell-based, Escherichia coli
Eco DH5α [7] = details: 48 h
Bc = details: for MIC / MBC/MFC: Table 5, minimal (CD) medium, crude peptides, up to 32 μg/ml; for MIC: spores, 96 h; for MBC/MFC: spotted on PD plate 24~72 h; for antimicrobial activity: at the highest peptide concentration (32μg/ml) tested, data not shown, before the tests in minimal media
Xoo Xoo28 [8] = details: Table 4, rich medium, up to 32 μg/ml; for MIC: 48 h, no visible growth; for MBC: spotted on rich agar 48 h, no colony
Xcc Xcc17 = assay type: cell-based, Xanthomonas campestris pv. campestris; details: rich medium, HPLC-purified peptides, peptide 0, 2, 10, 20 μg/ml, 24 h, OD600; lowest concentration inhibiting 50% of growth
Xoo Xoo28 [9] = assay type: cell-based, Xanthomonas oryzae pv. oryzae; details: rich medium, HPLC-purified peptides, peptide 0, 2, 10, 20 μg/ml, 24 h, OD600; lowest concentration inhibiting 50% of growth
Xev Xvt28 [10] = system: Xev Xvt28
[11] = Circular dichroism, secondary structure deconvolution; assay type: physicochemical; details: CD, structural deconvolution; for α-helix content: dissolved in water
Protocol: The peptides were dissolved in water to make a stock solution and then diluted in the solution that contained different concentrations of trifluoroethanol (TFE) to the desired final TFE concentration. The circular dichroism (CD) spectra between 190 and 250nm were recorded on a J-815 CD spectrometer (JASCO, Japan). The bandwidth was 2nm, and the step resolution was 0.05nm. Each sample was scanned twice, and the average of the two measurements was smoothed using the Savitzky-Golay method to get the final CD spectrum. The CD spectra were deconvoluted using the CD Multivariate SSE software version 2.0.1 (JASCO, Japan).

Eco DH5α [12] = system: Eco DH5α
Atu C58C1 = assay type: cell-based, Agrobacterium tumefaciens; details: rich medium, HPLC-purified peptides, peptide 0, 2, 10, 20 μg/ml, 24 h, OD600; lowest concentration inhibiting 50% of growth
[13] = Table 5, minimal medium, crude peptides, 96 h
[14] = Table 4, rich medium, 48 h, no visible growth
[15] = Table 5, minimal medium, crude peptides, spotted on rich agar 48 h
[16] = Table 7, rich media, spotted on rich agar 48 h

## Ac-WKKLKKLLKKL-NH2 [pepD3]
[1]
  size of disease lesions caused by Pcc, Arabidopsis: did not detectably inhibit the diseases
[2]
  antimicrobial activity: did not have detectable antimicrobial activity
Rs Pss190
  MIC: – (“–” indicates that no antimicrobial activity was detected in minimal media at the highest concentration (32μg/ml) of crude peptides that was tested in this study.)
  MBC/MFC: – (“–” indicates that no antimicrobial activity was detected in minimal media at the highest concentration (32μg/ml) of crude peptides that was tested in this study.)
[3]
  size of disease lesions caused by Pcc, tomato: did not detectably inhibit the diseases
Pst DC3000
  MIC: 8 µg/mL
  MBC: 16 µg/mL
Pss B728a
  MIC: 8 µg/mL
  MBC: 16 µg/mL
Cgl FST02
  MIC: – (“–” indicates that no antimicrobial activity was detected in minimal media at the highest concentration (32μg/ml) of crude peptides that was tested in this study.)
  MBC/MFC: – (“–” indicates that no antimicrobial activity was detected in minimal media at the highest concentration (32μg/ml) of crude peptides that was tested in this study.)
  antimicrobial activity: did not have detectable antimicrobial activity
Ech; [13]
  MIC: 32 µg/mL
Rs Pss4
  MIC: – (“–” indicates that no antimicrobial activity was detected in minimal media at the highest concentration (32μg/ml) of crude peptides that was tested in this study.)
  MBC/MFC: – (“–” indicates that no antimicrobial activity was detected in minimal media at the highest concentration (32μg/ml) of crude peptides that was tested in this study.)
Rs
  membranolytic effect (SYTOX Green staining): significant membranolytic effect
Xev Xvt28 [4]
  MBC: 4 µg/mL
  MIC: 4 µg/mL
Botrytis cinerea (Bc) [5]
  development of the lesion caused by Bc, Arabidopsis: did not detectably inhibit the diseases
Pcc; [14]
  MIC: 8 µg/mL
Pcc; [13]
  MIC: 8 µg/mL
Pcc; [15]
  MBC/MFC: 16 µg/mL
Botrytis cinerea (Bc) [6]
  development of the lesion caused by Bc, tomato: did not detectably inhibit the diseases
Eco
  membranolytic effect (SYTOX Green staining): significant membranolytic effect
Eco DH5α [7]
  MBC: 16 µg/mL
  MIC: 8 µg/mL
Bc
  MIC: – (“–” indicates that no antimicrobial activity was detected in minimal media at the highest concentration (32μg/ml) of crude peptides that was tested in this study.)
  MBC/MFC: – (“–” indicates that no antimicrobial activity was detected in minimal media at the highest concentration (32μg/ml) of crude peptides that was tested in this study.)
  antimicrobial activity: did not have detectable antimicrobial activity
Xoo Xoo28 [8]
  MIC: 4 µg/mL
  MBC: 4 µg/mL

## Ac-WKKLKKLLKKLKKL-NH2 [pepD2]
[1]
  size of disease lesions caused by Pcc, Arabidopsis: did not detectably inhibit the diseases
[2]
  antimicrobial activity: did not have detectable antimicrobial activity
Rs Pss190
  MIC: – (“–” indicates that no antimicrobial activity was detected in minimal media at the highest concentration (32μg/ml) of crude peptides that was tested in this study.)
  MBC/MFC: – (“–” indicates that no antimicrobial activity was detected in minimal media at the highest concentration (32μg/ml) of crude peptides that was tested in this study.)
[3]; crude peptide 16 µg/mL, lesion diameter 16–28 h post-inoculation, Student's t-test vs water-treated
  Plant response to infection with Pcc, Tomato (class and significance; number of batches in parentheses): ns(3)
[3]
  size of disease lesions caused by Pcc, tomato: did not detectably inhibit the diseases
Pst DC3000
  MIC: 4 µg/mL
  MBC: 8 µg/mL
Pss B728a
  MIC: 8 µg/mL
  MBC: 16 µg/mL
Cgl FST02
  MIC: – (“–” indicates that no antimicrobial activity was detected in minimal media at the highest concentration (32μg/ml) of crude peptides that was tested in this study.)
  MBC/MFC: – (“–” indicates that no antimicrobial activity was detected in minimal media at the highest concentration (32μg/ml) of crude peptides that was tested in this study.)
  antimicrobial activity: did not have detectable antimicrobial activity
Ech; [13]
  MIC: 16 µg/mL
Ech; [15]
  MBC/MFC: 16 µg/mL
Ech; Table 7, rich media, 48 h
  MIC: 32 µg/mL
Ech; [16]
  MBC: 32 µg/mL
Rs Pss4
  MIC: – (“–” indicates that no antimicrobial activity was detected in minimal media at the highest concentration (32μg/ml) of crude peptides that was tested in this study.)
  MBC/MFC: – (“–” indicates that no antimicrobial activity was detected in minimal media at the highest concentration (32μg/ml) of crude peptides that was tested in this study.)
Rs
  membranolytic effect (SYTOX Green staining): significant membranolytic effect
Xev Xvt28 [4]
  MBC: 4 µg/mL
  MIC: 4 µg/mL
Botrytis cinerea (Bc) [5]; crude peptide 16 µg/mL, lesion diameter 47–70 h post-inoculation, Student's t-test vs water-treated
  Plant response to infection with Bc, Arabidopsis (class and significance; number of batches in parentheses): ns(2 )
Botrytis cinerea (Bc) [5]
  development of the lesion caused by Bc, Arabidopsis: did not detectably inhibit the diseases
Pcc; [14]
  MIC: 8 µg/mL
Pcc; [13]
  MIC: 8 µg/mL
Pcc; [15]
  MBC/MFC: 8 µg/mL
Pcc; Table 7, rich media, 48 h
  MIC: 4 µg/mL
Pcc; [16]
  MBC: 8 µg/mL
Botrytis cinerea (Bc) [6]
  development of the lesion caused by Bc, tomato: did not detectably inhibit the diseases
Eco
  membranolytic effect (SYTOX Green staining): significant membranolytic effect
Eco DH5α [7]
  MBC: 8 µg/mL
Bc
  MIC: – (“–” indicates that no antimicrobial activity was detected in minimal media at the highest concentration (32μg/ml) of crude peptides that was tested in this study.)
  MBC/MFC: – (“–” indicates that no antimicrobial activity was detected in minimal media at the highest concentration (32μg/ml) of crude peptides that was tested in this study.)
  antimicrobial activity: did not have detectable antimicrobial activity
Xoo Xoo28 [8]
  MIC: 4 µg/mL
  MBC: 8 µg/mL

## Ac-WKLLKKLLKLLKKLLKLL-NH2 [pepB]
Xcc Xcc17
  IC50: – (“–” indicates that no antimicrobial activity was detected in rich media at the highest peptide concentration (20μg/ml) that was tested in this study.)
Xoo Xoo28 [9]
  IC50: – (“–” indicates that no antimicrobial activity was detected in rich media at the highest peptide concentration (20μg/ml) that was tested in this study.)
Xev Xvt28 [10]; 24 h
  IC50: 20 µg/mL
[11]; 10% TFE
  α-helix formation: 90%
[11]
  α-helix content: about 25%
Eco DH5α [12]
  IC50: – (key: “–” indicates that no antimicrobial activity was detected in rich media at the highest peptide concentration (20μg/ml) that was tested in this study.)
Atu C58C1
  IC50: – (“–” indicates that no antimicrobial activity was detected in rich media at the highest peptide concentration (20μg/ml) that was tested in this study.)

## Ac-WKLLKLLLKLLKLLLKLL-NH2 [pepA, de novo designed amphipathic peptide, 28% positively charged residues, 90° distribution]
Xcc Xcc17
  IC50: – (“–” indicates that no antimicrobial activity was detected in rich media at the highest peptide concentration (20μg/ml) that was tested in this study.)
Xoo Xoo28 [9]
  IC50: – (“–” indicates that no antimicrobial activity was detected in rich media at the highest peptide concentration (20μg/ml) that was tested in this study.)
Xev Xvt28 [10]
  IC50: – (key: “–” indicates that no antimicrobial activity was detected in rich media at the highest peptide concentration (20μg/ml) that was tested in this study.)
[11]
  α-helix content: over 90%
Eco DH5α [12]
  IC50: – (key: “–” indicates that no antimicrobial activity was detected in rich media at the highest peptide concentration (20μg/ml) that was tested in this study.)
Atu C58C1
  IC50: – (“–” indicates that no antimicrobial activity was detected in rich media at the highest peptide concentration (20μg/ml) that was tested in this study.)
